Laboratory results taken from article PMC9048841 (Journal of medicinal chemistry, 2022).
*1 amine or outer side, *2 acyl side, *3 side chain or, on linkers, in order; H or OH if unused. Where a SMILES comes first, the peptide text is derived from it. [ ]: non-standard residue; d: D form. The star is where a group is joined. Phe(3,4-(OMe)2) = COc1ccc(C[C@H](N)C(=O)O)cc1OC; Lys(Et,iPr) = CCN(CCCC[C@H](N)C(=O)O)C(C)C; X2 = O=C(C(N[*:1])[C@@H](O)c1ccccc1)[*:2]; Lys(Et2) = CCN(CC)CCCC[C@H](N)C(=O)O; Lys(Me2) = CN(C)CCCC[C@H](N)C(=O)O; X1 = O=C(c1ccoc1)*

Assays:
[1] = molecular target: H3K9me3 peptide (Homo sapiens) (UniProt P68431); details: cited from earlier work
[2] = molecular target: CBX5 chromodomain (wild type) (Homo sapiens, UniProt P45973); test: ITC binding to wild-type CBX5 chromodomain; details: for fold tighter binding of CBX5 than to UNC6212 (Kme2): wild-type CBX5, relative to UNC6212

Row | Compound | Kd [1] [µM] | fold tighter binding of CBX5 than to UNC6212 (Kme2) [2] | Kd [2] [µM] | fold tighter binding than HP1 with H3K9me3 ([2]; CBX5 with UNC6212 vs HP1 with H3K9me3) | fold more potent than histone tail peptides H3K9me3 and H3K9me2 ([2]; KD for CBX5, ligand vs H3K9me3 and H3K9me2)
1 | CBX5 (from UniProt P45973) | 30 |  |  |  | 
2 | CCN(CC)CCCC[C@H](NC(=O)[C@H](Cc1ccc(OC)c(OC)c1)NC(=O)[C@H](C)NC(=O)C(NC(=O)c1ccoc1)[C@@H](O)c1ccccc1)C(=O)N[C@@H](CO)C(N)=O (stereo partly drawn) [UNC6349, N-((8S,11S,14S,18S)-8-(((S)-1-amino-3-hydroxy-1-oxopropan-2-yl)carbamoyl)-11-(3,4-dimethoxybenzyl)-3-ethyl-18-hydroxy-14-methyl-10,13,16-trioxo-18-phenyl-3,9,12,15-tetraazaoctadecan-17-yl)furan-3-carboxamide] (X1-[X2]A[Phe(3,4-(OMe)2)][Lys(Et2)]S-NH2) |  | about 2 fold |  |  | 
3 | CCN(CCCC[C@H](NC(=O)[C@H](Cc1ccc(OC)c(OC)c1)NC(=O)[C@H](C)NC(=O)C(NC(=O)c1ccoc1)[C@@H](O)c1ccccc1)C(=O)N[C@@H](CO)C(N)=O)C(C)C (stereo partly drawn) [UNC6864, N-((8S,11S,14S,18S)-8-(((S)-1-amino-3-hydroxy-1-oxopropan-2-yl)carbamoyl)-11-(3,4-dimethoxybenzyl)-3-ethyl-18-hydroxy-2,14-dimethyl-10,13,16-trioxo-18-phenyl-3,9,12,15-tetraazaoctadecan-17-yl)furan-3-carboxamide] (X1-[X2]A[Phe(3,4-(OMe)2)][Lys(Et,iPr)]S-NH2) |  | about 2 fold | 3.3 |  | 
4 | COc1ccc(C[C@H](NC(=O)[C@H](C)NC(=O)C(NC(=O)c2ccoc2)[C@@H](O)c2ccccc2)C(=O)N[C@@H](CCCCN(C)C)C(=O)N[C@@H](CO)C(N)=O)cc1OC (stereo partly drawn) [UNC6212, N-((7S,10S,13S,17S)-7-(((S)-1-amino-3-hydroxy-1-oxopropan-2-yl)carbamoyl)-10-(3,4-dimethoxybenzyl)-17-hydroxy-2,13-dimethyl-9,12,15-trioxo-17-phenyl-2,8,11,14-tetraazaheptadecan-16-yl)furan-3-carboxamide] (X1-[X2]A[Phe(3,4-(OMe)2)][Lys(Me2)]S-NH2) |  |  | 5.7 | about 2.5 fold | about 5 fold
